Source: ChEMBL document CHEMBL3822376, “Potent anticholinesterasic and neuroprotective pyranotacrines as inhibitors of beta-amyloid aggregation, oxidative stress and tau-phosphorylation for Alzheimer's disease” (Eur J Med Chem, 2016)
The source made the active and inactive calls. No cut-off for these calls is given here.

Columns and labels:
[1] = test system: SH-SY5Y; experiment: Neuroprotective activity in human SH-SY5Y cells assessed as reversal of 15 nM okadaic acid-induced cell death at 1 to 10 uM after 24 hrs by XTT assay; format: functional, cell-based
[2] = in vitro; conditions: human, SH-SY5Y cells
Description: Neurotoxicity in human SH-SY5Y cells assessed as cell viability at 25 uM after 24 hrs by XTT assay relative to control

[3] = molecular target: T1, Acetylcholinesterase (Electrophorus electricus, UniProt O42275)
T1 sequence (O42275 whole entry): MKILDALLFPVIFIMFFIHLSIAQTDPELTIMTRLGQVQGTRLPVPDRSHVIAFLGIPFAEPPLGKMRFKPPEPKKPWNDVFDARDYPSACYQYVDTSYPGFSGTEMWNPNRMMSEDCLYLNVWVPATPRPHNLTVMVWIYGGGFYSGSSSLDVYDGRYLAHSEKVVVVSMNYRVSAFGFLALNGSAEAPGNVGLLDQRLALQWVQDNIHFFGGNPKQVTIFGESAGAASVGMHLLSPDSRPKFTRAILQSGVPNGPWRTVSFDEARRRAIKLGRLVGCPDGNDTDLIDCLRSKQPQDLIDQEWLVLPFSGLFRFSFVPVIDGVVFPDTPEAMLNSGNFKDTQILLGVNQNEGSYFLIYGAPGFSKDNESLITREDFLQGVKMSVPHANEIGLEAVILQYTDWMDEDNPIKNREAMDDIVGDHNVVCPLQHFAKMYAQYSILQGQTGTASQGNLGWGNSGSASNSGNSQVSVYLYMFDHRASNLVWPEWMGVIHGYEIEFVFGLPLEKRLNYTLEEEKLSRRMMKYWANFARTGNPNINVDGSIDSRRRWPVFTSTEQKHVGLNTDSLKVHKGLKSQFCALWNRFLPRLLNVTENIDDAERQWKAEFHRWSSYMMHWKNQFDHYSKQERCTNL
Description: Inhibition of electric eel AChE using acetylcholine as substrate preincubated for 15 mins followed by substrate addition by Ellman's method

[4] = in vitro; conditions: human, SH-SY5Y cells; remark: listed apart in the source
Description: Neurotoxicity in human SH-SY5Y cells assessed as cell viability at 0.1 uM after 24 hrs by XTT assay relative to control

[5] = test system: SH-SY5Y; experiment: Neuroprotective activity in human SH-SY5Y cells assessed as reversal of 20 nM okadaic acid-induced cell death at 1 to 10 uM after 24 hrs by XTT assay; format: functional, cell-based
[6] = in vitro; conditions: human, SH-SY5Y cells; remark: listed apart in the source
Description: Neurotoxicity in human SH-SY5Y cells assessed as cell viability at 5 uM after 24 hrs by XTT assay relative to control

[7] = test system: SH-SY5Y; experiment: cells; conditions: Homo sapiens, 24 h
Description: Neuroprotective activity against rotenone/oligomycin-A-induced cell death in human SH-SY5Y cells assessed as increase in cell viability after 24 hrs by XTT assay

[8] = test system: HepG2
Description: (§1) Hepatotoxicity in human HepG2 cells assessed as reduction in cell viability by MTT assay

[9] = in vitro; conditions: human, SH-SY5Y cells; remark: listed apart in the source
Description: Neurotoxicity in human SH-SY5Y cells assessed as cell viability at 50 uM after 24 hrs by XTT assay relative to control

[10] = in vitro; conditions: human, SH-SY5Y cells; remark: listed apart in the source
Description: Neurotoxicity in human SH-SY5Y cells assessed as cell viability at 1 uM after 24 hrs by XTT assay relative to control

[11] = in vitro; conditions: human, SH-SY5Y cells; remark: listed apart in the source
Description: Neurotoxicity in human SH-SY5Y cells assessed as cell viability at 10 uM after 24 hrs by XTT assay relative to control

[12] = test system: SH-SY5Y; experiment: Neuroprotective activity against amyloid beta (1 to 40)-induced cell death in human SH-SY5Y cells assessed as increase in cell viability at 10 uM after 48 hrs by XTT assay; format: functional, cell-based
[13] = in vitro; conditions: human, HepG2 cells
Description: as §1

[14] = molecular target: T1, Acetylcholinesterase; experiment: Mixed-type inhibition of electric eel AChE using acetylthiocholine as substrate preincubated for 15 mins followed by substrate addition by Dixon plot analysis
[15] = test system: SH-SY5Y; experiment: Neuroprotective activity against amyloid beta (1 to 40)-induced cell death in human SH-SY5Y cells at 10 uM after 48 hrs by phase contrast microscopic analysis; format: functional, cell-based
[16] = molecular target: Cholinesterase (Equus caballus) (UniProt P81908); experiment: Inhibition of horse serum BuChE using […] as substrate at 50 uM preincubated for 15 mins followed by substrate addition by Ellman's method relative to control
Chain of Cholinesterase (Equus caballus) (P81908 whole entry): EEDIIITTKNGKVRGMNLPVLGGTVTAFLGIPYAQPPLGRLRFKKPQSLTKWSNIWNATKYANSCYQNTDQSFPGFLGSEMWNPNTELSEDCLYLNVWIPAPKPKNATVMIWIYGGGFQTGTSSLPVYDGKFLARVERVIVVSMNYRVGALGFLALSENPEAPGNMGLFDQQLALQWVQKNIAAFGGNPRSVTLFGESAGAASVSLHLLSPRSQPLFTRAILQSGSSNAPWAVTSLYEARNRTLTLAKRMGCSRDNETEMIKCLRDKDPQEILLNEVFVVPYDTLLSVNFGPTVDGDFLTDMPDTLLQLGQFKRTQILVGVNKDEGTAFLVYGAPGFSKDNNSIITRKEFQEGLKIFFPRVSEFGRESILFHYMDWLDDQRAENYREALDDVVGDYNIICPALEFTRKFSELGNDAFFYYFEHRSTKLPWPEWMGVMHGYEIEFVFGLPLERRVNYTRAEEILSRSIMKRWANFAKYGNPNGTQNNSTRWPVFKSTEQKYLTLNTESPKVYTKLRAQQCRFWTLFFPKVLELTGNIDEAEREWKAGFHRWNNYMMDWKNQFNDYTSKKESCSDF

[17] = molecular target: Acetylcholinesterase (Homo sapiens) (UniProt P22303); experiment: Inhibition of AChE in human SH-SY5Y cells assessed as inhibition of amyloid beta (1 to 40) (unknown origin)-induced amyloid beta aggregation at 5 to 10 uM measured every 24 hrs for 7 days by Thioflavin T based fluorometric assay; format: cell-based
Chain of Acetylcholinesterase (Homo sapiens) (P22303 whole entry): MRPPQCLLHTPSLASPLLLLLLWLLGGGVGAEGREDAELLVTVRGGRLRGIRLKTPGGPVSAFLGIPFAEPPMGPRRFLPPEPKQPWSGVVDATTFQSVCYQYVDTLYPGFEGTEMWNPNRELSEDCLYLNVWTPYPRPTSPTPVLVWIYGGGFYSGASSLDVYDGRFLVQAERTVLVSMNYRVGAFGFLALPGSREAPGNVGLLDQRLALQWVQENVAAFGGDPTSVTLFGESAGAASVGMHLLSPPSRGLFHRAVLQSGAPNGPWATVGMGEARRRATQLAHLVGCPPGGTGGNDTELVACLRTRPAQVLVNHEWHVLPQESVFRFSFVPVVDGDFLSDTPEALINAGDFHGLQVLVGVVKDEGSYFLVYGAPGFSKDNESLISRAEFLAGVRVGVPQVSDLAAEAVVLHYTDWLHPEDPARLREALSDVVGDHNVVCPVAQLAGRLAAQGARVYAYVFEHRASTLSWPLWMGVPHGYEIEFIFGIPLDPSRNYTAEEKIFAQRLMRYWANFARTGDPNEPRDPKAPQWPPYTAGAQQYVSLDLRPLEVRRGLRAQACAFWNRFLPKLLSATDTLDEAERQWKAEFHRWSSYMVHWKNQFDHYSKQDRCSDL

[18] = test system: SH-SY5Y; experiment: Neuroprotective activity against 20 nM okadaic acid-induced cell death in human SH-SY5Y cells at 5 to 10 uM after 24 hrs by phase contrast microscopic analysis; format: functional, cell-based
[19] = in vitro; conditions: human, HepG2 cells; remark: listed apart in the source
[20] = molecular target: Acetylcholinesterase (Electrophorus electricus) (UniProt O42275); conditions: 25 uM
Chain of Acetylcholinesterase (Electrophorus electricus) (O42275 24-633 limits assumed): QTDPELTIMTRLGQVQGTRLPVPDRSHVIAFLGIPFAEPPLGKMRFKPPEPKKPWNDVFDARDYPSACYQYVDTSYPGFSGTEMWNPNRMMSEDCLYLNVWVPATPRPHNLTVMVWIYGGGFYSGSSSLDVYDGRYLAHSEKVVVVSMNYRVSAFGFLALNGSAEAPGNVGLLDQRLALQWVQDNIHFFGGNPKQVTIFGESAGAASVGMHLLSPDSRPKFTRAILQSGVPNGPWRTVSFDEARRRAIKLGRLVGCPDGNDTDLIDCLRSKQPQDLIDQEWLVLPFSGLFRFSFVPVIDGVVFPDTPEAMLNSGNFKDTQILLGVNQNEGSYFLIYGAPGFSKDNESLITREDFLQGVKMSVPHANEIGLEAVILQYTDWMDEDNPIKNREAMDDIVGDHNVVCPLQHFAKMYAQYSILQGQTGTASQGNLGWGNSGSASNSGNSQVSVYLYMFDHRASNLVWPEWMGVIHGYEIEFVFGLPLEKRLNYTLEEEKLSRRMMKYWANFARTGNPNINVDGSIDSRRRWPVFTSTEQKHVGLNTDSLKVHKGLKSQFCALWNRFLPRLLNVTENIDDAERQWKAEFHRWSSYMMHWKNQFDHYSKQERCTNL
Description: Inhibition of electric eel AChE-induced amyloid beta (1 to 40) aggregation at 25 uM measured every 24 hrs for 7 days by Thioflavin T based fluorometric assay relative to propidium iodide

[21] = molecular target: Acetylcholinesterase (Homo sapiens) (UniProt P22303); experiment: Inhibition of AChE in human SH-SY5Y cells assessed as inhibition of amyloid beta (1 to 40) (unknown origin)-induced tau phosphorylation at Ser-396 residue at 5 to 10 uM after 48 hrs by Western blot analysis; format: cell-based
[22] = molecular target: Acetylcholinesterase (Electrophorus electricus) (UniProt O42275); experiment: Inhibition of electric eel AChE-induced amyloid beta (1 to 40) aggregation at 25 uM measured every 24 hrs for 7 days by Thioflavin T based fluorometric assay relative to control
[23] = molecular target: Acetylcholinesterase (Homo sapiens) (UniProt P22303); experiment: Inhibition of AChE in human SH-SY5Y cells assessed as decrease in okadaic acid-induced tau phosphorylation at Ser-396 residue at 10 uM after 24 hrs by Western blot analysis; format: cell-based
[24] = molecular target: Acetylcholinesterase (Homo sapiens) (UniProt P22303); experiment: Inhibition of AChE in human SH-SY5Y cells assessed as decrease in okadaic acid-induced tau oligomerization at 10 uM after 24 hrs by Western blot analysis; format: cell-based
[25] = molecular target: Acetylcholinesterase (Homo sapiens) (UniProt P22303); experiment: Inhibition of AChE in human SH-SY5Y cells assessed as reduction in rotenone/oligomycin-A-induced tau phosphorylation at Ser-396 residue at 10 uM after 24 hrs by Western blot analysis; format: cell-based

| SMILES | Activity [1] | viability at 24 h, 25 µM [2] [%] | IC50 [3] [µM] | viability at 24 h, 0.1 µM [4] [%] | Activity [5] | viability at 24 h, 5 µM [6] [%] | EC50 [7] [µM] | viability at 24 h, 50 µM [9] [%] | viability at 24 h, 1 µM [10] [%] | viability at 24 h, 10 µM [11] [%] | Activity [12] | EC50 [13] [µM] | inhibition [16] [%] | also measured |
| --- | --- | --- | --- | --- | --- | --- | --- | --- | --- | --- | --- | --- | --- | --- |
| CCOC(=O)C1=C(C)Oc2nc3c(c(N)c2C1c1cc2cccc(OC)c2nc1Cl)CCCC3 (centres undefined) | Active | 100 | 0.61 | 107 | Active | 100 | 1.95 | 99.5 | 91.9 | 96.5 |  |  |  | EC50 [8]: 1080 µM |
| COC(=O)C1=C(C)Oc2nc3c(c(N)c2C1c1cc2ccc(OC)cc2nc1Cl)CCC3 (centres undefined) |  | 118 | 1.66 | 104 | Active | 114 | 11.8 | 93.2 | 94.2 | 98 | Active | 540 |  |  |
| CCOC(=O)C1=C(C)Oc2nc3c(c(N)c2C1c1cc2cc(OC)ccc2nc1Cl)CCCC3 (centres undefined) |  | 125 | 2.23 | 128 | inactive | 135 | 0.34 | 68.5 | 110 | 116 |  | 73 |  |  |
| COC(=O)C1=C(C)Oc2nc3c(c(N)c2C1c1cc2ccc(OC)cc2nc1Cl)CCCC3 (centres undefined) | Active | 133 | 0.47 | 128 | Active | 132 | 0.63 | 82.5 | 105 | 113 | Active | 622 | 50 | Ki [14]: 0.0142 µM; Activity [15]: Active; inhibition [17]: Active; Activity [18]: Active; selectivity ratio [19]: 3.4; inhibition [20]: 65%; inhibition [21]: Active; inhibition [22]: 75% |
| COc1ccc2cc(C3C4=C(CC(C)(C)CC4=O)Oc4nc5c(c(N)c43)CCC5)c(Cl)nc2c1 (centres undefined) |  | 124 | 0.58 | 85 | inactive | 113 | 0.63 | 94.9 | 91.6 | 102 |  |  |  | selectivity ratio [19]: 11; EC50 [8]: 1920 µM |
| COC(=O)C1=C(C)Oc2nc3c(c(N)c2C1c1cc2ccc(OC)cc2nc1Cl)CCCCC3 (centres undefined) |  | 98.6 | 1.87 | 90.8 | Active | 95.9 | 5.63 | 75.1 | 93.2 | 85.1 | Active | 745 | 50 |  |
| CCOC(=O)C1=C(C)Oc2nc3c(c(N)c2C1c1cc2ccc(OC)cc2nc1Cl)CCCC3 (centres undefined) |  | 123 | 1.52 | 103 | Active | 131 | 2.3 | 129 | 130 | 125 |  | 942 | 50 |  |
| COc1ccc2cc(C3C4=C(CC(C)(C)CC4=O)Oc4nc5c(c(N)c43)CCCC5)c(Cl)nc2c1 (centres undefined) |  | 113 | 14.8 | 93.8 | Active | 113 | 12.2 | 90.6 | 95.6 | 103 | Active | 922 |  |  |
| CCOC(=O)C1=C(C)Oc2nc3c(c(N)c2C1c1cc2cc(C)ccc2nc1Cl)CCCC3 (centres undefined) | Active | 112 | 0.54 | 90.1 | Active | 101 | 2.43 | 80.2 | 82.9 | 97.2 | Active | 128 | 50 |  |
| CCOC(=O)C1=C(C)Oc2nc3c(c(N)c2C1c1cc2ccc(OC)cc2nc1Cl)CCCCC3 (centres undefined) |  | 109 | 9.8 | 84.2 | inactive | 125 | 4.7 | 106 | 99 | 106 | Active | 656 |  |  |
| CCOC(=O)C1=C(C)Oc2nc3c(c(N)c2C1c1cc2ccc(OC)cc2nc1Cl)CCC3 (centres undefined) |  | 106 | 4.02 | 115 | Active | 119 | 2.4 | 112 | 135 | 116 |  | 931 |  | inhibition [22]: 28.3% |
| CCOC(=O)C1=C(C)Oc2nc3c(c(N)c2C1c1cc2ccccc2nc1Cl)CCCC3 (centres undefined) | Active | 95.5 | 0.48 | 110 | Active | 99.7 | 1.54 | 93.6 | 104 | 96.5 | Active |  | 50 | Activity [15]: Active; inhibition [17]: Active; inhibition [23]: Active; inhibition [24]: Active; Activity [18]: Active; selectivity ratio [19]: 27; inhibition [25]: Active; EC50 [8]: 4820 µM; inhibition [21]: Active |
| COc1ccc2cc(C3C4=C(CC(C)(C)CC4=O)Oc4nc5c(c(N)c43)CCCCC5)c(Cl)nc2c1 (centres undefined) |  | 118 | 2.81 | 92.2 | Active | 111 | 5.6 | 103 | 97.3 | 97.3 |  | 330 |  |  |
